Legend:
population of cells = assay: Image-based live-dead cell assay using mean tubulin marker (DM1-α) intensity per cell
Excerpt: FIG. 1 presents two images of cells: a left image of a control population of cells treated with DMSO, and a right image of a test population of cells treated with the compound carbonyl cyanide 3-chlorophenylhydrazone (herein CCCP), a poison which acts on the cellular respiratory pathway. After treatment with DMSO or CCCP, the cells were fixed and stained with multiple markers. Three of these markers are shown in the image: red indicates DNA, blue indicates tubulin, and green indicates the trans-Golgi network. […] Note that individual cells are identified (whether alive or dead) by a small red area in the central region. This red area is associated with DNA in the cell nucleus. […] This is not necessarily an indication that the dead cells have increased levels of Golgi.
FIG. 2 presents a flowchart depicting one method for producing a model that can be used to determine whether an individual cell is live or dead. As shown in a block 203, the method begins by preparing the cell populations that are to be used for imaging. In certain embodiments, a sandwich culture is employed. In this preliminary operation, some cell populations are treated as controls (assumed to have a high fraction of cells that are alive) and other cell populations are treated as test samples (assumed to have a significant fraction of cells that are dead). Upon completion of treatment, cells are fixed and stained with appropriate markers. The test cells will all have been treated with a compound or other stimulus known to kill a significant percentage of the cells in a given population. Together, the control and test cell populations provide relatively large numbers of live and dead cells. The size of these populations should be large enough to provide a training set sufficient to generate a model that can reliably distinguish live cells from dead cells.
An exemplary two-step segmentation process is illustrated in FIGS. 3A and 3B. FIG. 3A presents the result of the first step. As shown there, two images (the left one for a control population treated with DMSO and the right one for a test population treated with 2.5 μM CCCP) show nuclei circled in the interiors of individual cells. Cellular DNA was stained with Hoechst […], which emits fluorescence at a wavelength selectively collected in the FIG. 3A image to permit identification of the individual nuclei. Each such nucleus is presumed to belong to a separate cell.
FIG. 3B presents the results of the second step of the cell segmentation procedure. As shown, the cell populations of FIG. 3A are again presented, but this time at the Alexa 647 channel (i.e., the bright regions in the image locate the source of radiation emitted at the wavelength of Alexa 647). […] The cell boundaries so identified are circled within the images. Each cell boundary defines a collection of pixels that are deemed to belong to a particular cell. For image processing those pixels are used extracting information about the particular cell in question.
After the boundaries of each cell have been identified, the appropriate live-dead indicator feature can be extracted on a cell-by-cell basis. See block 209. As indicated above, the intensity of a marker for tubulin (an indicator of local tubulin concentration within the cell) can be identified for each pixel in a given cell. Each cell will be characterized on the basis of its level of tubulin, whether based on an average value over all pixels in the cell, a maximum or minimum value within the cell, or some other indicator of tubulin quantity. In a preferred embodiment, the mean tubulin marker intensity is calculated over the pixels in a cell and the resulting value is employed as the live-dead indicator feature.
Additional images are presented in FIG. 3C, highlighting the marker DM1-α for tubulin. […] Note that live and dead cells can be usually distinguished by visual inspection. […]

[1] = tested on: TGN (trans-Golgi network); conditions: FIG. 6C; increasing concentrations
Excerpt: As with FIGS. 6A and 6B, the live-dead discrimination in FIG. 6C was made using mean DM1-α intensity (per cell).

[2] = tested on: live cells and dead cells; assay: Total cell area in live and dead cells (pixel count within segmented boundary); assay type: cell-based; conditions: FIG. 6B
Procedure: The area was determined from a pixel count within the boundary determined by segmentation. […] A simple consideration of the average cell area for all cells (including live cells and dead cells) would likely mask the fact that the higher concentrations of the drug cause dead cells to become progressively larger. The effect of the live cells masks, somewhat, the effect on the dead cells. […] Note that the average area of the live and dead cells together is shown as lines 611 in FIG. 6B. Note also that, as with the plot in FIG. 6A, the live cells were discriminated from dead cells using the mean DM1-α intensity of each cell.

**Q.** With `N#CC(C#N)=NNc1cccc(Cl)c1` [CCCP, carbonyl cyanide 3-chlorophenylhydrazone] as the compound, how does the “number of cells with significant tubulin concentration versus DMSO control” value (population of cells; FIG. 1, fixed and stained cells, tubulin marker (blue)) read?
**A.** far fewer cells with significant tubulin concentration

**Q.** And the “percentage of dead cells versus DMSO control population” value (population of cells; FIG. 3C, 2.5 μM CCCP, DM1-α tubulin channel)?
**A.** far higher percentage of dead cells

**Q.** And the “mean tubulin marker intensity per cell (histogram) versus control cells” value (population of cells; FIG. 4B, 0.625 μM to 5 μM CCCP for 24 hours, test cells pooled with control cells)?
**A.** a relatively large fraction of the cells have a mean tubulin marker intensity well below that associated with the control cells

**Q.** And the “concentration at which the number of live cells begins to decrease” value (population of cells; FIG. 6A, normalized concentration, decrease at roughly the same rate as the dead cell increase)?
**A.** about 0.5 μM

**Q.** And the “concentration at which the number of dead cells begins to increase dramatically” value (population of cells; FIG. 6A, normalized concentration, live/dead discriminated by mean DM1-α intensity, samples of around 800 cells)?
**A.** about 0.5 μM

**Q.** And the “total number of cells (number of objects, DNA spots) across concentrations” value (population of cells; FIG. 6A, three samples of around 800 cells each)?
**A.** remain approximately constant

**Q.** With `Nc1c2c(nc3ccccc13)CCCC2` [tacrine] as the compound, how does the “Golgi (TGN) marker intensity signal in dead cells” value [1] read?
**A.** relatively minimal affect

**Q.** And the “mean Golgi (TGN) marker intensity signal in live cells” value [1]?
**A.** dramatically increase

**Q.** For `O=C(O)Cc1ccccc1Nc1c(Cl)cccc1Cl` [diclofenac], which “total area of the live cells” value ([2]; beginning at approximately the same concentration (arbitrary 100)) is on record?
**A.** gradually decreased

**Q.** And the “area of the dead cells” value ([2]; from the arbitrary concentration of 100 in the plot)?
**A.** begins to increase rather dramatically
